From patent publication US20240352069A1, “SYNTHETIC PEPTIDE, AND COSMETIC COMPOSITION OR PHARMACEUTICAL COMPOSITION AND APPLICATION THEREOF” (SHENZHEN WINKEY TECHNOLOGY CO., LTD., priority 2021, published 2024)

Legend:
HaCaT cells [1] = experiment: Cell proliferation experiment (MTT), HaCaT; assay type: cell-based, human; conditions: 24 hours
Text: Human keratinocytes (HaCaT) were purchased from the Kunming Cell Bank of the Type Culture Collection Committee of the Chinese Academy of Sciences, and mouse skin fibroblasts (NIH3T3) were purchased from the Shanghai Cell Bank of the Type Culture Collection Committee of the Chinese Academy of Sciences.
• a) Take cells in good condition in exponential growth phase, add 0.25% trypsin digestion solution, digest to make adherent cells fall off, count 1-4×10^5 cells/mL, and make cell suspension; • b) Appropriately dilute 2000 cells/well of the cell suspension and inoculate it on a 96-well plate at 200 μL/well, and culture it in a constant temperature CO2 incubator for 24 hours. • c) Change the medium, add the sample to be tested, 20 μL/well, and incubate for 24 hours; • d) Add the MTT reagent into the 96-well plate, 20 μL/well, and react in the incubator for 4 hours; • e) Aspirate the supernatant, add DMSO, 150 μL/well, and shake on a plate shaker for 5 minutes; • f) After 5 minutes, use a microplate reader to read the reference OD values at 490 nm and 630 nm wavelengths, and calculate the cell viability:
MTT method is a method to detect cell survival and growth. The measured OD value is directly proportional to cell activity. The larger the OD value, the higher the cell activity.

HaCaT cells [2] = experiment: Promoting cell adhesion test (MTT after three-dimensional force); assay type: cell-based, human; conditions: 12.5, 25, 50, 100 ppm coated plate, vs normal control group
Procedure: Human keratinocytes (HaCaT) were purchased from the Kunming Cell Bank of the Type Culture Collection Committee of the Chinese Academy of Sciences.
Dissolve with PBS solution.
The cryopreserved HaCaT human cuticle cells were cultured, subcultured at a ratio of 1:2 to about 5 passages, and the cells with better growth were selected as the experimental objects.
The sample to be tested was added to a 96-well plate at a rate of 20 μL/well, and dried overnight in a constant temperature oven at 37° C. […] Set the detection wavelength to 490 nm, the reference wavelength to 630 nm, and use a microplate reader to read the OD value.
By selecting HaCaT cells, plate them in a drug-coated 96-well plate, and after incubation and a period of three-dimensional force, the cells with strong adhesion can be maintained on the 96-well plate. By performing MTT quantitative analysis on the live cells on the plate, that is, the effect of the drug on cell adhesion can be evaluated to determine whether the peptide of the present invention can improve cell elasticity. After three-dimensional force action, the more living cells remained on the 96-well plate, the greater the measured OD value, indicating the stronger the adhesion of the cells.

## H-Ala-Pro-Phe-Arg-Met-Gly-Ile-Met-Thr-Thr-Asn-OH (H-APFRMGIMTTN-OH) [Peptide (2)]
HaCaT cells [1]; 12.5-100 ppm
  impact on the activity of HaCaT cells compared among peptides (1)-(5): greater impact on the activity of HaCaT cells
HaCaT cells [1]; 12.5 ppm-100 ppm, vs PBS blank control
  effect on the activity of HaCaT cells (MTT): could both improve the activity of HaCaT cells, promote their proliferation
HaCaT cells [2]
  adhesion ability of HaCaT cells: could improve the adhesion ability of HaCaT cells
